Read-outs that look alike come from different tables or passages of the source.
Assays:
Type in all cases: biochemical, cynomolgus monkey
[1] = target: cortisol synthase (CYP11B1) (Macaca fascicularis, UniProt A0A2K5ULY1); assay: Inhibition of cortisol synthesis (cynomolgus adrenal mitochondria, cortisol by mass spectrometry)
Summary of the method: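 Cynomolgus adrenal mitochondria (150 units CYP11B1 activity) incubated with 11-deoxycortisol in 100 mM potassium phosphate pH 7.4, 1% DMSO; reaction started with 1 mM NADPH, 90 min at 37° C, stopped with MeCN. Cortisol quantified by mass spectrometry; IC50 from 4-parameter logistic fit versus no-compound (100%) and no-NADPH (0%) controls.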

[2] = system: aldosterone synthase (CYP11B2); assay: Inhibition of aldosterone synthase (cynomolgus adrenal mitochondria, aldosterone by mass spectrometry); settings: selectivity for aldosterone synthase inhibition over cortisol synthase (CYP11B1) inhibition, fold
Summary of the method: (§1)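 Cynomolgus adrenal mitochondria (50 units CYP11B2 activity) incubated with 2 μM corticosterone in 100 mM potassium phosphate pH 7.4, 1% DMSO; started with 1 mM NADPH, 90 min at 37 °C. Aldosterone quantified by mass spectrometry; no-NADPH blank as 0%, no-compound as 100% activity, across compound concentrations.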

[3] = target: aldosterone synthase (CYP11B2) (Macaca fascicularis, UniProt A0A2K5UPL9); assay: as above; settings: 2 μM corticosterone substrate, 50 units CYP11B2, 90 min, 37° C.; read-out: Aldosterone Inhibition IC50
Summary of the method: as §1

[4] = 11-deoxycortisol substrate, 150 units CYP11B1; read-out: Cortisol Inhibition IC50
[5] = read-out: Cortisol Inhibition IC50; 11-deoxycortisol substrate, 150 units CYP11B1

Sequence of aldosterone synthase (CYP11B2) (Macaca fascicularis, UniProt A0A2K5UPL9) (A0A2K5UPL9 1-503): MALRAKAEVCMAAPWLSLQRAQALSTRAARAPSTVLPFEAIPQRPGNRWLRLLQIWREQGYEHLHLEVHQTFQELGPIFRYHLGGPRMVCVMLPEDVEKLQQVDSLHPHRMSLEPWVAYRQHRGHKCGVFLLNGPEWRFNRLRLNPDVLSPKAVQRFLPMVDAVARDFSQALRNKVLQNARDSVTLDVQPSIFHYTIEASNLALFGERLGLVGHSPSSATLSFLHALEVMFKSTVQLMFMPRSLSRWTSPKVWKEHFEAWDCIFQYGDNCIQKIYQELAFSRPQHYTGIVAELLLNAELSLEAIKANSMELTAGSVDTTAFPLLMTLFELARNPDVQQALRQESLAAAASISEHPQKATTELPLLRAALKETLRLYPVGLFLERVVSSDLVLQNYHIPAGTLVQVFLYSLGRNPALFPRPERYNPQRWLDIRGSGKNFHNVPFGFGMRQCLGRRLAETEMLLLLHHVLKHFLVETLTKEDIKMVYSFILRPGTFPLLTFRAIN

| Molecule | IC50 [1, 4] | Selectivity [2] | IC50 [3] | IC50 [1, 5] |
| --- | --- | --- | --- | --- |
| CC1(C)CC(=O)c2c(ncn2C2CCc3cc(C#N)ccc3C2)C1 (stereo not drawn) [C-ADN, 6-(5,5-Dimethyl-7-oxo-4,5,6,-tetrahydro-benzoimidazol-1-yl)-5,6,7,8-tetrahydro-naphthalene-2-carbonitrile] | > 30000 nM | 160 | 190 nM | – |
| 3-(4-Chloroophenyl)-6,6-spirocyclopropyl-3,5,6,7-tetrahydro-benzimidazolo-4-one [C-ACF] | 590 nM | 57 | 10 nM | – |
| CC1(C)CC(=O)c2c(ncn2Cc2ccc3[nH]ncc3c2)C1 [C-ACY, 3-(1H-Indazol-5-ylmethyl)-6,6-dimethyl-3,5,6,7-tetrahydro-benzoimidazol-4-one] | 1700 nM | 15 | 110 nM | – |
| COc1ccc2c(c1)CCC(n1cnc3c1C(=O)CC(C)(C)C3)C2 (stereo not drawn) [C-ACN, 3-(6-Methoxy-1,2,3,4-tetrahydro-naphthalen-2-yl)-6,6-dimethyl-3,5,6,7-tetrahydro-benzoimidazol-4-one] | 11000 nM | 460 | 24 nM | – |
| C[C@H]1Cc2cc(-n3cnc4c3C(=O)CCC4)ccc2O1 (stereo in doubt) [C-AAZ-B, 3-(2-Methyl-2,3-dihydro-benzofuran-5-yl)-3,5,6,7-tetrahydro-benzoimidazol-4-one] | > 30000 nM | 430 | 70 nM | – |
| CC1(C)CC(=O)c2c(ncn2-c2ccc(Cl)c(Cl)c2)C1 [C-ABD, 3-(3,4-Dichloro-phenyl)-6,6,-dimethyl-3,5,6,7-tetrahydro-benzoimidazol-4-one] | 370 nM | 120 | 3.1 nM | – |
| Cc1ccc(-n2cnc3c2C(=O)CC(C)(C)C3)cc1 [C-ACB, 6,6-Dimethyl-3-p-tolyl-3,5,6,7-tetrahydro-benzoimidazol-4-one] | 4400 nM | 200 | 22 nM | – |
| N#Cc1ccc(-n2cnc3c2C(=O)CC2(CC2)C3)cc1Cl [C-AAW, 3-(3-Chloro-4-cyano)-6,6-spirocyclopropyl-3,5,6,7-tetrahydrobenzimidazol-4-one] | – | 43 | 5 nM | 220 nM |
| CC1CCc2ncn(-c3ccc(C#N)cc3)c2C1=O (stereo not drawn) [C-ADY, 4-(6-Methyl-7-oxo-4,5,6,7-tetrahydro-benzoimidazol-1-yl)-benzonitrile] | 3640 nM | 152 | 24 nM | – |
| COc1ccc(Cn2cnc3c2C(=O)CC(C)(C)C3)cc1 [C-ADQ, 3-(4-Methoxy-benzyl)-6,6-dimethyl-3,5,6,7-tetrahydro-benzoimidazol-4-one] | 2100 nM | 22 | 96 nM | – |
| Cn1ncc2ccc(-n3cnc4c3C(=O)CCC4)cc21 [C-AAH, 3-(1-Methyl-1H-indazol-6-yl)-3,5,67,-tetrahydro-benzoimidazol-4-one] | > 30000 nM | 630 | 48 nM | – |
| O=C1CCCc2ncn(-c3ccc4c(c3)CCCN4)c21 [C-ABB, 3-(1,2,3,4-Tetrahydro-quinolin-6-yl)-3,5,6,7-tetrahydro-benzoimidazol-4-one] | > 30000 nM | 120 | 250 nM | – |
| O=C1CC2(CCOCC2)Cc2ncn(-c3ccc(Cl)cc3)c21 [C-AAR, 3-(4-Chloro-phenyl)-6,6-3-o-tetrahydropyran-3,5,6,7-tetrahydro-benzoimidazol-4-one] | 5000 nM | 73 | 69 nM | – |
| N#Cc1ccc(-n2cnc3c2C(=O)C[C@@H](C(N)=O)C3)cc1Cl [C-AEB-A, (S)-1-(3-Chloro-4-cyano-phenyl)-7-oxo-4,5,6,7-tetrahydro-1H-benzoimidazole-5-carboxylic acid amide] | – | 51 | 590 nM | > 30000 nM |
| NC(=O)N1CCCc2cc(-n3cnc4c3C(=O)CCC4)ccc21 [C-ADZ, 6-(7-Oxo-4,5,6,7-tetrahydro-benzoimidazol-1-yl)-3,4-dihydro-2H-quinoline-1-carboxylic acid amide] | > 30000 nM | 300 | 99 nM | – |
| CC1(C)CC(=O)c2c(ncn2-c2ccc(Cl)c(F)c2)C1 [C-ABM, 3-(4-Chloro-3-fluoro-phenyl)-6,6-dimethyl-3,5,6,7-tetrahydro-benzoimidazol-4-one] | 770 nM | 160 | 4.7 nM | – |
| CC1(C)CC(=O)c2c(ncn2-c2cc(Cl)cc(Cl)c2)C1 [C-ABH, 3-(3,5-Dichloro-phenyl)-6,6-dimethyl-3,5,6,7-tetrahydro-benzoimidazol-4-one] | 5200 nM | 240 | 22 nM | – |
| N#Cc1ccc(-n2cnc3c2C(=O)CC2(CCOCC2)C3)cc1 [C-AAS, 4-(7-Oxospiro[4,6-dihydrobenzimidazole-5,4′-tetrahydropyran]-1-yl)benzonitrile] | 14000 nM | 61 | 240 nM | – |
| Cc1cc(-n2cnc3c2C(=O)CC(C)(C)C3)ccc1C#N [C-ABV, 4-(5,5-Dimethyl-7-oxo-4,5,6,7-tetrahydro-benzoimidazol-1-yl)-2-methyl-benzonitrile] | 130 nM | 20 | 6.6 nM | – |
| CC1(C)CC(=O)c2c(ncn2Cc2ccc(S(C)(=O)=O)cc2)C1 [C-ADP, 3-(4-Methanesulfonyl-benzyl)-6,6-dimethyl-3,5,6,7-tetrahydro-benzoimidazol-4-one] | 1600 nM | 17 | 92 nM | – |
| CC1(C)CC(=O)c2c(ncn2Cc2ccccc2)C1 [C-ADR, 3-Benzyl-6,6-dimethyl-3,5,6,7-tetrahydro-benzoimidazol-4-one] | 9400 nM | 97 | 97 nM | – |
| CC1(C)CC(=O)c2c(ncn2CC2CCOCC2)C1 [C-ADI, 6,6-Dimethyl-3-(tetrahydro-pyran-4-ylmethyl)-3,5,6,7-tetrahydro-benzoimidazol-4-one] | 19000 nM | 41 | 470 nM | – |
